Tests used:
Format in all cases: physicochemical, human
[1] = GC/MS of serum sample: time from centrifugation to isolation (Table H); design: key to Rate of increase or decrease / Rate of increase or decrease (first value, increase): detection intensity relative to 1 at 30 min centrifugation-to-isolation; conditions: for Rate of increase or decrease: detection intensity relative to 1 at 30 minutes; for Increase or decrease: detection intensity
How it was run: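 Values are GC/MS (EI, MRM) detection intensities of methoxymated/trimethylsilylated serum, normalised to 1 for the 30-min sample. Serum was isolated 30 min, 1 h or 6 h after room-temperature centrifugation (3500 rpm, 5 min) of blood.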

[2] = GC/MS of serum sample: number of times of freezing and thawing (Table I); design: key to Rate of increase or decrease / Rate of increase or decrease (first value, increase): detection intensity relative to 2 freeze-thaw cycles = 1
How it was run: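 Detection intensities are ratios to the value after two freeze–thaw cycles, which is set as 1, compared against 4, 6 and 10 cycles. Analysis used methoxymation and trimethylsilylation derivatization, then GC/MS with EI ionization and multiple reaction monitoring on a BPX5 column. Serum came from blood held at room temperature and spun at 3500 rpm for 5 min.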

[3] = LC/MS of blood plasma sample: time from blood collection to centrifugation (Table D); conditions: for Rate of increase or decrease: detection intensity relative to 1 at 15 minutes; for Rate of increase or decrease / Increase or decrease: blood collection to centrifugation; for Increase or decrease: detection intensity
How it was run: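 Detection intensities are expressed relative to samples centrifuged 15 min after collection (=1), measured by electrospray LC/MS in MRM mode (Discovery HS F5-3, 40 °C, formic acid water/acetonitrile gradient at 0.25 mL/min). EDTA blood from a healthy donor was held at 4 °C, centrifuged at 4 °C, 3000 rpm, 15 min, and plasma frozen.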

[4] = LC/MS of blood plasma sample: number of times of freezing and thawing (Table F); conditions: for Rate of increase or decrease: detection intensity relative to 1 at 2 times; for Increase or decrease: detection intensity
How it was run: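 Values are detection intensities normalised to 1 for plasma thawed twice, compared against 4, 6 and 10 freeze-thaw cycles. Measured by electrospray LC/MS in MRM mode, formic acid water/acetonitrile mobile phase, column at 40° C. Plasma came from EDTA blood, cooled to 4° C and spun at 3000 rpm for 15 min.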

[5] = LC/MS of serum sample: time from blood collection to centrifugation (Table J); conditions: for Increase or decrease / Time when compound is affected: serum sample, LC/MS; for Increase or decrease: detection intensity vs 15 minutes from blood collection to centrifugation; for Time when compound is affected: time from blood collection to centrifugation, detection intensity changed by 30% or more vs 15 minutes
How it was run: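 Detection intensities are expressed relative to 1 for samples centrifuged 15 min after blood collection; centrifugation was at room temperature, 3500 rpm, 5 min. Frozen serum was run by electrospray LC-MS in MRM mode, with 0.1% formic acid water/acetonitrile at 0.25 mL/min on a 40 °C F5 column.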

[6] = freezing and thawing 4 times vs 2 times
[7] = after 4 hours from blood collection to centrifugation, detection intensity relative to 1 at 15 minutes

Row | Increase or decrease ([3]; after 4 hours vs 15 minutes) | Rate of increase or decrease ([4]; freezing and thawing 4 times) | Increase or decrease [4, 6] | Increase or decrease [5] | Time when compound is affected [5] | Rate of increase or decrease ([1]; after 1 hour) | Increase or decrease ([1]; after 1 hour vs 30 minutes) | Rate of increase or decrease [5, 7] | Increase or decrease ([3]; after 6 hours vs 15 minutes) | Structure (SMILES) | also measured
1 | Decrease | 0.55 | Decrease | Different from individual | After 4 hours |  |  |  |  | NC(=O)NC1NC(=O)NC1=O (stereo not shown) [Allantoin] | Rate of increase or decrease ([1]; after 6 hours): 3.00; Increase or decrease ([1]; after 6 hours vs 30 minutes): Increase; Rate of increase or decrease ([2]; detection intensity relative to 1 at 2 times, serum, GC/MS, freezing and thawing 10 times): 2.94; Increase or decrease ([2]; detection intensity, serum, GC/MS, freezing and thawing 10 times vs 2 times): Increase; Rate of increase or decrease ([3]; after 4 hours): 0.52; Rate of increase or decrease ([5]; after 4 hours, relative to 1 at 15 minutes, different from individual to individual, first value (increase)): 1.78; Rate of increase or decrease ([5]; after 4 hours, relative to 1 at 15 minutes, different from individual to individual, second value (decrease)): 0.40
2 | Different from individual |  |  | Increase | After 4 hours | 1.36 | Increase | 2.24 |  | O=c1[nH]cnc2nc[nH]c12 [Hypoxanthine] | Rate of increase or decrease ([2]; 10 times of freezing and thawing, relative to 1 at 2 times, different from individual to individual, first value (increase)): 1.47; Rate of increase or decrease ([2]; 10 times of freezing and thawing, relative to 1 at 2 times, different from individual to individual, second value (decrease)): 0.66; Number of times when compound is affected ([2]; serum sample, GC/MS, detection intensity changed by 30% or more vs 2 times of freezing and thawing): 10 times; Increase or decrease ([2]; serum sample, GC/MS, detection intensity vs 2 times of freezing and thawing): Different from individual; Rate of increase or decrease (second value, decrease) ([3]; different from individual to individual, individuals with decrease, relative to 1 at 15 minutes, collection to centrifugation, after 4 hours): 0.70; Rate of increase or decrease (first value, increase) ([3]; different from individual to individual, individuals with increase, relative to 1 at 15 minutes, collection to centrifugation, after 4 hours): 3.84; Rate of increase or decrease ([4]; freezing and thawing 6 times): 2.04; Increase or decrease ([4]; freezing and thawing 6 times vs 2 times): Increase
3 |  |  |  | Increase | After 12 hours | 0.66 | Decrease |  | Increase | CC(C)(CO)[C@@H](O)C(=O)NCCC(=O)O [Pantothenic acid] | Rate of increase or decrease ([2]; detection intensity relative to 1 at 2 times, serum, GC/MS, freezing and thawing 4 times): 1.39; Increase or decrease ([2]; detection intensity, serum, GC/MS, freezing and thawing 4 times vs 2 times): Increase; Rate of increase or decrease ([4]; freezing and thawing 10 times): 1.43; Increase or decrease ([4]; freezing and thawing 10 times vs 2 times): Increase; Rate of increase or decrease ([5]; after 12 hours from blood collection to centrifugation, detection intensity relative to 1 at 15 minutes): 1.43
4 |  | 1.77 | Increase | Increase | After 4 hours |  |  | 1.92 | Increase | O=c1[nH]c(=O)c2[nH]cnc2[nH]1 [Xanthine] | Rate of increase or decrease ([3]; after 6 hours): 1.39

Source: patent publication US20220146526A1, “METHOD FOR EVALUATING SAMPLE, ANALYSIS METHOD, METHOD FOR DETECTING DEGRADED SAMPLE, MARKER FOR DETECTING DEGRADED BLOOD PLASMA SAMPLE, AND MARKER FOR DETECTING DEGRADED SERUM SAMPLE” (SHIMADZU CORPORATION, priority 2019, published 2022)
